Experimental findings from ChEMBL document CHEMBL1139263, “New lycorine-type alkaloid from Lycoris traubii and evaluation of antitrypanosomal and antimalarial activities of lycorine derivatives” (Bioorg Med Chem, 2008) are described below.

Usually IC50 stands for the concentration that inhibits the measured activity by half. A high value points to weaker potency.

≈ marks a conversion by molar mass, not a printed value.

The subject of test [1] is Plasmodium falciparum. In words: Antimalarial activity against drug-resistant Plasmodium falciparum K1 infected human erythrocytes after 72 hrs. In kind it is functional, organism-based. Particulars: K1, 72 h.
The nature of test [2]: Selectivity index ratio IC50 for human MRC5 cells to IC50 for Plasmodium falciparum K1. In kind it is functional.
Test [3] relates to Trypanosoma brucei brucei. As to the kind of experiment: Antitrypanosomal activity against Trypanosoma brucei brucei GUTat3.1 after 72 hrs by alamar blue assay. In kind it is functional, organism-based. Particulars: GUTat3.1, 72 h. In general terms: Alamar Blue is a resazurin reagent that responds to reducing activity.
The subject of test [4] is MRC5. In words: Cytotoxicity against human MRC5 cells after 7 days by MTT assay. Particulars: MRC5, 168 h. Format: cell-based.
The nature of test [5]: Selectivity index ratio IC50 for human MRC5 cells to IC50 for Trypanosoma brucei brucei GUTat3.1. Format: functional.
Test [6] deals with Plasmodium falciparum. As to the kind of experiment: Antimalarial activity against drug-sensitive Plasmodium falciparum FCR3 infected human erythrocytes after 72 hrs. Format: functional, organism-based. Particulars: FCR3, 72 h.
Test [7] can be described thus: Selectivity index ratio IC50 for human MRC5 cells to IC50 for Plasmodium falciparum FCR3. In kind it is functional.
The subject of test [8] is Trypanosoma brucei rhodesiense. As to the kind of experiment: Antitrypanosomal activity against Trypanosoma brucei rhodesiense STIB900 trypomastigotes. Format: functional, organism-based.
Test [9] concerns Plasmodium falciparum. In words: Antimalarial activity against Plasmodium falciparum FAC8. In kind it is functional, organism-based.
Test [10] has as its system Plasmodium falciparum. In words: Antimalarial activity against Plasmodium falciparum D10. In kind it is functional, organism-based.

On to `CC(=O)O[C@H]1[C@H]2c3cc4c(cc3CN3CCC(=C[C@@H]1O)[C@H]23)OCO4`, for which the IC50 was determined as 0.36 mg/L (≈ 1.09 µM) in [1], 5.22 mg/L (≈ 15.8 µM) in [3], 1.29 mg/L (≈ 3.92 µM) in [4] and 0.3 mg/L (≈ 0.911 µM) in test [6]. Besides, the “Ratio IC50” value in test [2] is reported as 3.6; in test [5] it was 0.2; in [7] it was 4.3.

Regarding `CC(=O)O[C@H]1[C@H]2c3cc4c(cc3CN3CCC(=C[C@@H]1OC(C)=O)[C@H]23)OCO4`, the IC50 was 7.6 mg/L (≈ 20.5 µM) in test [1]; 1 mg/L (≈ 2.69 µM) in test [8]; 1 mg/L (≈ 2.69 µM) in [9]; over 12.5 mg/L in [3]; 1 mg/L (≈ 2.69 µM) in test [10]; 18.1 mg/L (≈ 48.8 µM) in test [4]. Moreover, the figures for the “Ratio IC50” value in test [2] and in [5] were 2.4 and under 1.4, respectively.

As for `CCC(=O)O[C@H]1[C@H]2c3cc4c(cc3CN3CCC(=C[C@@H]1O)[C@H]23)OCO4`, the IC50 was 0.37 mg/L (≈ 1.08 µM) in test [1], 1.34 mg/L (≈ 3.9 µM) in test [3], 4.99 mg/L (≈ 14.5 µM) in test [4] and 0.3 mg/L (≈ 0.874 µM) in [6]. Besides, the “Ratio IC50” value in [2] is recorded as 13.5; in [5], 3.7; in test [7] it was 16.6.

In the case of `CCCC(=O)O[C@H]1[C@H]2c3cc4c(cc3CN3CCC(=C[C@@H]1OC(=O)CCC)[C@H]23)OCO4`, the IC50 amounted to 0.67 mg/L (≈ 1.57 µM) in test [1] and 0.53 mg/L (≈ 1.24 µM) in test [6]. Also, the entries for the “Ratio IC50” value in [2] and in test [7] were 21.7 and 27.5, respectively.

Regarding `CCCC(=O)O[C@H]1[C@H]2c3cc4c(cc3CN3CCC(=C[C@@H]1O)[C@H]23)OCO4`, the IC50 came to 0.41 mg/L (≈ 1.15 µM) in [1], 1.38 mg/L (≈ 3.86 µM) in [3], 3.6 mg/L (≈ 10.1 µM) in test [4] and 0.32 mg/L (≈ 0.895 µM) in test [6]. For the same molecule, the “Ratio IC50” value is reported as 8.8 in test [2], 2.6 in test [5] and 11.3 in test [7].

`C[C@@H](O)CC(=O)O[C@@H]1[C@H]2c3cc4c(cc3CN3CCC(=C[C@@H]1O)[C@H]23)OCO4`: the IC50 in test [1] came to 0.62 mg/L (≈ 1.66 µM); in test [3], 2.45 mg/L (≈ 6.56 µM); in test [4] it was 6.35 mg/L (≈ 17 µM); in test [6] it was 0.49 mg/L (≈ 1.31 µM). The “Ratio IC50” value is on record as 10.2 in test [2], 2.6 in test [5] and 13 in test [7].

As to `CC(=O)O[C@H]1C=C2CCN3Cc4cc5c(cc4[C@H]([C@@H]1O)[C@@H]23)OCO5`, the results for the IC50 in [1], in [3] and in test [4] were 8.21 mg/L (≈ 24.9 µM), 0.15 mg/L (≈ 0.455 µM) and 6.11 mg/L (≈ 18.6 µM), respectively. The “Ratio IC50” value was 0.7 in test [2] and 40.7 in test [5].

Take `CCC(=O)O[C@H]1[C@H]2c3cc4c(cc3CN3CCC(=C[C@@H]1OC(=O)CC)[C@H]23)OCO4`: the IC50 in test [1] was 4.2 mg/L (≈ 10.5 µM); in test [4], over 23.8 mg/L. Also, the “Ratio IC50” value in test [2] is recorded as over 23.8.

Take `C[C@H](O)CC(=O)O[C@H]1[C@H]2c3cc4c(cc3CN3CCC(=C[C@@H]1O)[C@H]23)OCO4`: the IC50 came to 0.6 mg/L (≈ 1.61 µM) in [1], 1.9 mg/L (≈ 5.09 µM) in test [3], 8.11 mg/L (≈ 21.7 µM) in test [4] and 0.45 mg/L (≈ 1.21 µM) in [6]. In addition, the results for the “Ratio IC50” value in [2], in test [5] and in test [7] were 13.5, 4.3 and 18, respectively.

In the case of `C[C@@H]1CC[C@H]2[C@@H](C)C(=O)O[C@@H]3O[C@@]4(C)CC[C@@H]1[C@]32OO4` [ARTEMISININ], the half-maximal inhibitory concentration (IC50) is 0.0057 mg/L (≈ 0.0202 µM) in test [1] and 0.006 mg/L (≈ 0.0213 µM) in test [6]. The entries for the “Ratio IC50” value in [2] and in test [7] were 7924.5 and 7528.3, respectively.

As to `NCCCC(N)(C(=O)O)C(F)F` (stereo not drawn) [EFLORNITHINE], the IC50 in test [3] was 2.27 mg/L (≈ 12.5 µM); in [4], over 100 mg/L. In addition, the “Ratio IC50” value in test [5] was over 44.

In the case of `N=C(N)c1ccc(OCCCCCOc2ccc(C(=N)N)cc2)cc1` [PENTAMIDINE], the figures for the IC50 in test [3] and in test [4] were 0.00158 mg/L (≈ 0.00464 µM) and 5.71 mg/L (≈ 16.8 µM), respectively. In test [5], the “Ratio IC50” value stood at 3614.

For `Cc1ccc(C(=O)Nc2ccc(S(=O)(=O)O)c3cc(S(=O)(=O)O)cc(S(=O)(=O)O)c23)cc1NC(=O)c1cccc(NC(=O)Nc2cccc(C(=O)Nc3cc(C(=O)Nc4ccc(S(=O)(=O)O)c5cc(S(=O)(=O)O)cc(S(=O)(=O)O)c45)ccc3C)c2)c1` [SURAMIN], the IC50 in test [3] was 1.58 mg/L (≈ 1.22 µM); in test [4], over 100 mg/L. Moreover, the “Ratio IC50” value in [5] is on record as over 63.
